Key:
A549 cells [1] = test: Effect on cell cycle arrest and cell death induced by anti-cancer agents, DNA content analysis; assay type: cell-based
Method: A549 cells in 6 well plates were cultured for 3 days in the presence or absence of 10 nM Compound A together with 0.1 μM camptothecin, 10 μM vinblastin, 1 μM paclitaxel or 1 μM staurosporine as indicated. The cells were then collected and fixed in 70% ethanol prior to staining with propidium iodide and DNA content determined by flow cytometry. The numbers indicate the % of cells in the various cell cycle phases relative to all cells with ≧2N DNA content and also the % dead cells (ie. subdiploid ≦2N cells) to the left of the dotted marker that arose during the culture period.
This was examined in more detail using DNA content analysis to specifically measure cell cycle progression and cell death. In this experiment in addition to camptothecin and paclitaxel cells were also treated with vinblastin (another microtubule inhibitor) (Sorger et al., 1997, supra) and staurosporine (a kinase inhibitor) (Gescher, Crit Rev Oncol Hematol., 2000, 34(2):127-35).

HT29 = test: NCI in vitro anticancer drug discovery screen (sulforhodamine B); assay type: cell-based; settings: Homo sapiens, HT-29, HT29, colon, 48 hr
Method: (§1) (c) Testing of Compound A against a much larger cell line panel in the NCI in vitro anticancer screen (Table 7) confirmed the results described above. […] Consistent with the data in Table 5 the cytotoxic effects measured after 2 days of culture were more varied with LC50 values ranging from 10 nM for COLO-205 colon tumour cells to ˜90 μM for 786-0 renal tumour cells.

SK-MEL-28 = test: as above; assay type: cell-based; settings: Homo sapiens, SK-MEL-28, melanoma, 48 hr
Method: as §1

NCI-11522 = test: as above; assay type: cell-based; settings: Homo sapiens, NCI-11522, lung, 48 hr
Method: as §1

NCI-H226 = test: as above; assay type: cell-based; settings: Homo sapiens, NCI-H226, lung, 48 hr
Method: as §1

SNB-75 = test: as above; assay type: cell-based; settings: Homo sapiens, SNB-75, brain, 48 hr
Method: as §1

SK-MEL-2 = test: as above; assay type: cell-based; settings: Homo sapiens, SK-MEL-2, melanoma, 48 hr
Method: as §1

EKVX = test: as above; assay type: cell-based; settings: Homo sapiens, lung, 48 hr
Method: as §1

M14 = test: as above; assay type: cell-based; settings: Homo sapiens, M14, melanoma, 48 hr
Method: as §1

BT-549 = test: as above; assay type: cell-based; settings: Homo sapiens, BT-549, breast, 48 hr
Method: as §1

LOX IMV1 = test: as above; assay type: cell-based; settings: Homo sapiens, LOX IMV1, melanoma, 48 hr
Method: as §1

UACC-62 = test: as above; assay type: cell-based; settings: Homo sapiens, UACC-62, melanoma, 48 hr
Method: as §1

MALME-3M = test: as above; assay type: cell-based; settings: Homo sapiens, melanoma, 48 hr
Method: as §1

OVCAR-4 = test: as above; assay type: cell-based; settings: Homo sapiens, OVCAR-4, ovarian, 48 hr
Method: as §1

OVCAR-5 = test: as above; assay type: cell-based; settings: Homo sapiens, OVCAR-5, ovarian, 48 hr
Method: as §1

ACHN = test: as above; assay type: cell-based; settings: Homo sapiens, renal, 48 hr
Method: as §1

SF-295 = test: as above; assay type: cell-based; settings: Homo sapiens, SF-295, brain, 48 hr
Method: as §1

NCI-H460 = test: as above; assay type: cell-based; settings: Homo sapiens, NCI-H460, lung, 48 hr
Method: as §1

MCF7 = test: as above; assay type: cell-based; settings: Homo sapiens, MCF7, breast, 48 hr
Method: as §1

MDA-MB-231/ATCC = test: as above; assay type: cell-based; settings: Homo sapiens, breast, 48 hr
Method: as §1

COLO-205 = test: as above; assay type: cell-based; settings: Homo sapiens, COLO-205, colon, 48 hr
Method: as §1

A549 cells [2] = test: Effect on camptothecin- and paclitaxel-induced cytotoxicity, YOYO-1 exclusion; assay type: cell-based, human; settings: A549, 10 nM Compound A, 3 days, drugs at up to 2000-fold excess
Method: A549 cells in 96 well plates were cultured for 3 days in the presence or absence of 10 nM Compound A together with the indicated concentrations of (A) camptothecin or (B) paclitaxel. Loss of membrane integrity was then assessed by the addition of the fluorescent DNA-binding dye YOYO-1 and the increased fluorescence accompanying cell death measured using a fluorescent plate reader.
To further examine the cell cycle effects of Compound A a cytostatic concentration of this compound was combined together with other anti-cancer agents known to act at specific points in the cell cycle to see if Compound A could perturb their cell cycle-dependent effects. Cell viability was assayed after 3 days by measuring exclusion of the fluorescent DNA-binding dye YOYO-1. (Becker et al., Anal Biochem, 1994, 221(1):78-84). A549 cells were treated with 10 nM non-cytotoxic dose of Compound A in the presence of increasing concentrations of camptothecin and paclitaxel. Camptothecin is an inhibitor of DNA topoisomerase 1, an enzyme required for DNA replication, and results in pertubation of the S phase of the cell cycle with subsequent cell death due to activation of an S phase checkpoint (Darzynkiewicz et al., Ann N Y Acad Sci, 1996, 803:93-100). […]

[3] = read-out: LC50 (the source's name)

SMILES: COC(=O)[C@H]1[C@@H](O)[C@@]2(O)c3c(OC)cc(OC4OC(C(O)CO)COC4OC)cc3O[C@@]2(c2ccc(OC)cc2)[C@@H]1c1ccccc1 (single isomer, unassigned) [Compound A]
- cell cycle distribution and cell death (A549 cells [1]; A549, 10 nM Compound A alone, three days): a minor decrease in cells in G0/G1 with a slight increase in G2/M phase cells with no detectable increase in cell death
- effect on cytotoxicity of staurosporine (A549 cells [1]; A549, 10 nM Compound A with 1 μM staurosporine, 3 days): little effect on the cytotoxic effects of staurosporine
- effect on cell cycle arrest and cytotoxicity of camptothecin, vinblastin and paclitaxel (A549 cells [1]; A549, 10 nM Compound A, 3 days): prevented their characteristic cell cycle arrest and significantly inhibited their cytotoxic effects
- GI50 (HT29): < 0.01 µM
- CC50 (HT29; [3]): 1 µM
- GI50 (SK-MEL-28): < 0.01 µM
- CC50 (SK-MEL-28; [3]): 2.66 µM
- GI50 (NCI-11522): < 0.01 µM
- CC50 (NCI-11522; [3]): 2.4 µM
- GI50 (NCI-H226): < 0.01 µM
- CC50 (NCI-H226; [3]): 0.193 µM
- GI50 (SNB-75): < 0.01 µM
- CC50 (SNB-75; [3]): 0.054 µM
- GI50 (SK-MEL-2): < 0.01 µM
- CC50 (SK-MEL-2; [3]): 19.1 µM
- GI50 (EKVX): < 0.01 µM
- CC50 (EKVX; [3]): 0.023 µM
- GI50 (M14): < 0.01 µM
- CC50 (M14; [3]): 0.051 µM
- GI50 (BT-549): < 0.01 µM
- CC50 (BT-549; [3]): 32.7 µM
- GI50 (LOX IMV1): < 0.01 µM
- CC50 (LOX IMV1; [3]): 1 µM
- GI50 (UACC-62): < 0.01 µM
- CC50 (UACC-62; [3]): 0.03 µM
- GI50 (MALME-3M): < 0.01 µM
- CC50 (MALME-3M; [3]): 24 µM
- GI50 (OVCAR-4): < 0.01 µM
- CC50 (OVCAR-4; [3]): 0.011 µM
- GI50 (OVCAR-5): < 0.01 µM
- CC50 (OVCAR-5; [3]): 1 µM
- GI50 (ACHN): < 0.01 µM
- CC50 (ACHN; [3]): 31.6 µM
- GI50 (SF-295): < 0.01 µM
- CC50 (SF-295; [3]): 1.23 µM
- GI50 (NCI-H460): < 0.01 µM
- CC50 (NCI-H460; [3]): 38 µM
- GI50 (MCF7): < 0.01 µM
- CC50 (MCF7; [3]): 1 µM
- GI50 (MDA-MB-231/ATCC): < 0.01 µM
- CC50 (MDA-MB-231/ATCC; [3]): 25.4 µM
- GI50 (COLO-205): < 0.01 µM
- CC50 (COLO-205; [3]): 0.01 µM
- effect on cytotoxicity of camptothecin and paclitaxel (A549 cells [2]): significantly reduced the cytotoxic effects of both camptothecin and paclitaxel

Source: US6710075B2, “Therapeutic compounds and methods” (The Government of the State of Sarawak, Malaysia, priority 2000, dated 2004)
